Data as given in US20260176254A1, “INHIBITORS OF PROSTATE SPECIFIC MEMBRANE ANTIGEN AND USE THEREOF” (SHANGHAI SINOTAU BIOTECH. CO., LTD, priority 2023, published 2026).
pIC50: −log10 of the molar value.

Columns and labels:
[1] = biological target: T1, recombinant human PSMA (rhPSMA) (Homo sapiens, UniProt Q04609); assay: Naaladase assay (fluorescence-based Naaladase activity inhibition); format: biochemical; settings: rhPSMA 0.4 μg/mL, substrate N-Acetyl-Asp-Glu 40 μM, 37° C. one hour
T1 construct: purchased Sino Biological
T1 sequence (Q04609 whole entry): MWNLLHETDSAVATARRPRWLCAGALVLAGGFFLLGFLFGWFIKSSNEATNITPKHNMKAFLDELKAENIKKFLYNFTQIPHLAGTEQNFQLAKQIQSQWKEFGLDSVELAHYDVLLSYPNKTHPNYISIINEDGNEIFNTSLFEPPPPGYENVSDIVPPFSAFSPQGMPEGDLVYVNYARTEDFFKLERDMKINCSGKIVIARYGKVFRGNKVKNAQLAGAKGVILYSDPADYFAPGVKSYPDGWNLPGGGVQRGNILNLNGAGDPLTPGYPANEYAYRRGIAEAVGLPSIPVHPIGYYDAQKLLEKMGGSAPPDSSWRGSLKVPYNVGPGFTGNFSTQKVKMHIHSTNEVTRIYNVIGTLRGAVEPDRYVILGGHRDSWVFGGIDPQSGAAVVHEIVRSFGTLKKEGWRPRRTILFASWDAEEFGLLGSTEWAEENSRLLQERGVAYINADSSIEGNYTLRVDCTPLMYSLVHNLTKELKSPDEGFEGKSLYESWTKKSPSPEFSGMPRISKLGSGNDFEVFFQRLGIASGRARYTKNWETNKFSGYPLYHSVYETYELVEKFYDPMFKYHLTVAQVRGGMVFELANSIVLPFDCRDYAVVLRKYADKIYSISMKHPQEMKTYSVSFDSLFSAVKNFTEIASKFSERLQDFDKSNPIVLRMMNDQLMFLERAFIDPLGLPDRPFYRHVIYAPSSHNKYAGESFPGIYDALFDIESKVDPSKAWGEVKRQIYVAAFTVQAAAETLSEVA
Method: Naaladase activity inhibition was determined using a fluorescence-based assay. Briefly, the solution containing the substrate N-Acetyl-Asp-Glu (Sigma-Aldrich) at 40 μM and the compound at concentrations from 0.15 nM to 1000 nM was mixed at equal volume with recombinant human PSMA (rhPSMA, Sino Biological) at 0.4 μg/mL, in assay buffer (50 mM HEPES, 100 mM NaCl, pH 7.5). The enzymatic reaction was proceeded by incubation at 37° C. for one hour and then stopped by heating at 95° C. for 5 minutes. A solution of 15 mM ortho-phthaldialdehyde (Sigma-Aldrich) was added to all vials and incubated for 10 min at ambient temperature. The reaction solutions were loaded onto a 96-well flat clear bottom black microplates (Corning) and read at excitation and emission wavelengths of 330 and 450 nm, respectively, using a microplate reader (Tecan). The data were analyzed by a one-site total binding regression algorithm of GraphPad Prism (GraphPad Software).

LNCaP cells = assay: Cell uptake assay of 177Lu-labeled compound; format: cell-based; settings: for Membrane (%): cell membrane fraction; for Intracellular (%): intracellular fraction
Method: LNCaP (ATCC) cells were cultured in RPMI 1640 medium (Gibco) containing 10% fetal bovine serum (FBS) (Gibco), in 5% carbon dioxide (CO2), at 37.0° C. in a humidified incubator. 2×10^5 LNCaP cells/well were seeded in a 24-well plate the day before experiment. 7.4 KBq (200 nCi) of ^177Lu-labeled compound was added into each well, and then incubated in 37° C., 5% CO2 incubator for varying durations. At each time point, the supernatant, cell membrane and intracellular fractions were collected. The cell membrane fraction was recovered by incubating cells with buffer containing 50 mM glycine and 100 mM NaCl, pH 2.7 for 10 minutes at 37° C., while the intracellular fraction was recovered from cells treated with 1M NaOH. Activity of ^177Lu-labelled compound in every component was detected by gamma counter.

Row | SMILES | pIC50 [1] | Membrane (%) (LNCaP cells; 1 hr) | Membrane (%) (LNCaP cells; 4 hr) | Membrane (%) (LNCaP cells; 24 hr) | Intracellular (%) (LNCaP cells; 1 hr) | Intracellular (%) (LNCaP cells; 4 hr) | Intracellular (%) (LNCaP cells; 24 hr)
1 | O=C(O)CN1CCN(CC(=O)O)CCN(CC(=O)NC23CCC(Nc4c(N[C@@H](Cc5c6ccccc6cc6ccccc56)C(=O)NCCCC[C@H](NC(=O)N[C@@H](CNC(=O)C(=O)O)C(=O)O)C(=O)O)c(=O)c4=O)(CC2)CC3)CCN(CC(=O)O)CC1 [E8] | 8.80 | 4.8% | 12.8% | 7.3% | 11.5% | 39.0% | 77.9%
2 | O=C(O)CCC[C@H](NC(=O)N[C@@H](CCCCNC(=O)[C@H](Cc1c2ccccc2cc2ccccc12)Nc1c(Nc2ccc3c(c2)CN(C(=O)CN2CCN(CC(=O)O)CCN(CC(=O)O)CCN(CC(=O)O)CC2)CC3)c(=O)c1=O)C(=O)O)C(=O)O [E13] | 8.77 | 8.3% | 13.8% | 7.1% | 6.9% | 23.0% | 43.3%
3 | O=C(O)CC[C@H](NC(=O)N[C@@H](CCCCNC(=O)[C@H](Cc1ccc2ccccc2c1)Nc1c(NC23CCC(CNC(=O)CN4CCN(CC(=O)O)CCN(CC(=O)O)CCN(CC(=O)O)CC4)(CC2)CC3)c(=O)c1=O)C(=O)O)C(=O)O [E1, (((S)-1-carboxy-5-((S)-2-((3,4-dioxo-2-((4-((2-(4,7,10-tris(carboxymethyl)-1,4,7,10-tetraazacyclododecan-1-yl)acetamido)methyl)bicyclo[2.2.2]octan-1-yl)amino)cyclobut-1-en-1-yl)amino)-3-(naphthalen-2-yl)propanamido)pentyl)carbamoyl)-L-glutamic acid] | 8.48 | 3.4% | 5.6% | 7.1% | 3.0% | 9.9% | 24.8%
4 | O=C(O)CCC[C@H](NC(=O)N[C@@H](CCCCNC(=O)[C@H](Cc1c2ccccc2cc2ccccc12)Nc1c(NC23CCC(NC(=O)CN4CCN(CC(=O)O)CCN(CC(=O)O)CCN(CC(=O)O)CC4)(CC2)CC3)c(=O)c1=O)C(=O)O)C(=O)O [E4, (S)-2-(3-((S)-5-((S)-3-(anthracen-9-yl)-2-((3,4-dioxo-2-((4-(2-(4,7,10-tris(carboxymethyl)-1,4,7,10-tetraazacyclododecan-1-yl)acetamido)bicyclo[2.2.2]octan-1-yl)amino)cyclobut-1-en-1-yl)amino)propanamido)-1-carboxypentyl)ureido)hexanedioic acid] | 8.85 | 6.4% | 12.8% | 13.0% | 7.2% | 23.0% | 57.4%
5 | O=C(O)CC[C@H](NC(=O)N[C@@H](CCCCNC(=O)[C@H](Cc1ccc2ccccc2c1)Nc1c(NC23CCC(NC(=O)CN4CCN(CC(=O)O)CCN(CC(=O)O)CCN(CC(=O)O)CC4)(CC2)CC3)c(=O)c1=O)C(=O)O)C(=O)O [E6, (((S)-1-carboxy-5-((S)-2-((3,4-dioxo-2-((4-(2-(4,7,10-tris(carboxymethyl)-1,4,7,10-tetraazacyclododecan-1-yl)acetamido)bicyclo[2.2.2]octan-1-yl)amino)cyclobut-1-en-1-yl)amino)-3-(naphthalen-2-yl)propanamido)pentyl)carbamoyl)-L-glutamic acid] | 8.82 | 6.3% | 10.1% | 11.6% | 5.7% | 18.9% | 45.5%
6 | O=C(O)CN1CCN(CC(=O)O)CCN(CC(=O)NCC23CCC(Nc4c(N[C@@H](Cc5c6ccccc6cc6ccccc56)C(=O)NCCCC[C@H](NC(=O)N[C@@H](CNC(=O)C(=O)O)C(=O)O)C(=O)O)c(=O)c4=O)(CC2)CC3)CCN(CC(=O)O)CC1 [E3, (4S,8S,15S)-16-(anthracen-9-yl)-15-((3,4-dioxo-2-((4-((2-(4,7,10-tris(carboxymethyl)-1,4,7,10-tetraazacyclododecan-1-yl)acetamido)methyl)bicyclo[2.2.2]octan-1-yl)amino)cyclobut-1-en-1-yl)amino)-1,6,14-trioxo-2,5,7,13-tetraazahexadecane-1,4,8-tricarboxylic acid] | 8.92 | 4.0% | 6.8% | 8.8% | 14.7% | 44.2% | 73.3%
7 | O=C(O)CC[C@H](NC(=O)N[C@@H](CCCCNC(=O)[C@H](Cc1c2ccccc2cc2ccccc12)Nc1c(NC23CCC(NC(=O)CN4CCN(CC(=O)O)CCN(CC(=O)O)CCN(CC(=O)O)CC4)(CC2)CC3)c(=O)c1=O)C(=O)O)C(=O)O [E15] | 9.10 | 14.1% | 27.3% | 23.8% | 9.6% | 30.4% | 58.4%
8 | O=C(O)CN1CCN(CC(=O)O)CCN(CC(=O)N[C@H]2CC[C@H](Nc3c(N[C@@H](Cc4c5ccccc5cc5ccccc45)C(=O)NCCCC[C@H](NC(=O)N[C@@H](CNC(=O)C(=O)O)C(=O)O)C(=O)O)c(=O)c3=O)CC2)CCN(CC(=O)O)CC1 [E12] | 9.05 | 11.1% | 18.0% | 12.7% | 7.3% | 24.3% | 41.4%
9 | O=C(O)CC[C@H](NC(=O)N[C@@H](CCCCNC(=O)[C@H](Cc1ccc2ccccc2c1)Nc1c(Nc2ccc3c(c2)CCN(C(=O)CN2CCN(CC(=O)O)CCN(CC(=O)O)CCN(CC(=O)O)CC2)C3)c(=O)c1=O)C(=O)O)C(=O)O [E5] | 8.52 | – | – | – | – | – | –
10 | O=C(O)CCC[C@H](NC(=O)N[C@@H](CCCCNC(=O)[C@H](Cc1c2ccccc2cc2ccccc12)Nc1c(NC23CCC(CNC(=O)CN4CCN(CC(=O)O)CCN(CC(=O)O)CCN(CC(=O)O)CC4)(CC2)CC3)c(=O)c1=O)C(=O)O)C(=O)O [E2, (S)-2-(3-((S)-5-((S)-3-(anthracen-9-yl)-2-((3,4-dioxo-2-((4-((2-(4,7,10-tris(carboxymethyl)-1,4,7,10-tetraazacyclododecan-1-yl)acetamido)methyl)bicyclo[2.2.2]octan-1-yl)amino)cyclobut-1-en-1-yl)amino)propanamido)-1-carboxypentyl)ureido)hexanedioic acid] | 8.40 | – | – | – | – | – | –
11 | NC(=O)CN1CCN(CC(=O)O)CCN(CC(=O)NC23CCC(Nc4c(N[C@@H](Cc5c6ccccc6cc6ccccc56)C(=O)NCCCC[C@H](NC(=O)N[C@@H](CNC(=O)C(=O)O)C(=O)O)C(=O)O)c(=O)c4=O)(CC2)CC3)CCN(CC(=O)O)CC1 [E16] | 8.46 | – | – | – | – | – | –

Further lines, with some results ahead:

Row | pIC50 [1] | SMILES | Membrane (%) (LNCaP cells; 1 hr) | Membrane (%) (LNCaP cells; 4 hr) | Membrane (%) (LNCaP cells; 24 hr) | Intracellular (%) (LNCaP cells; 1 hr) | Intracellular (%) (LNCaP cells; 4 hr) | Intracellular (%) (LNCaP cells; 24 hr)
12 | 8.62 | O=C(O)CC[C@H](NC(=O)N[C@@H](CCCCNC(=O)[C@H](Cc1ccc2ccccc2c1)NC(=O)[C@H]1CC[C@H](CNC(=O)CN2CCN(CC(=O)O)CCN(CC(=O)O)CCN(CC(=O)O)CC2)CC1)C(=O)O)C(=O)O [PSMA-617, reference compound] | 2.1% | 4.8% | 4.7% | 3.0% | 9.5% | 22.4%
13 | 8.80 | O=C(O)CCC[C@H](NC(=O)N[C@@H](CCNC(=O)[C@H](Cc1c2ccccc2cc2ccccc12)NC(=O)[C@H]1CC[C@H](CNC(=O)CN2CCN(CC(=O)O)CCN(CC(=O)O)CCN(CC(=O)O)CC2)CC1)C(=O)O)C(=O)O [HTK03149, reference compound] | 2.9% | 3.8% | 5.7% | 2.8% | 7.4% | 19.3%
14 | 8.31 | O=C(O)CN1CCN(CC(=O)O)CCN(CC(=O)NC23CCC(Nc4cc(N[C@@H](Cc5c6ccccc6cc6ccccc56)C(=O)NCCCC[C@H](NC(=O)N[C@@H](CNC(=O)C(=O)O)C(=O)O)C(=O)O)ncn4)(CC2)CC3)CCN(CC(=O)O)CC1 [E22, (4S,8S,15S)-16-(anthracen-9-yl)-1,6,14-trioxo-15-((6-((4-(2-(4,7,10-tris(carboxymethyl)-1,4,7,10-tetraazacyclododecan-1-yl)acetamido)bicyclo[2.2.2]octan-1-yl)amino)pyrimidin-4-yl)amino)-2,5,7,13-tetraazahexadecane-1,4,8-tricarboxylic acid] | – | – | – | – | – | –
15 | 7.64 | COc1nc(N[C@@H](Cc2ccc3ccccc3c2)C(=O)NCCCC[C@H](NC(=O)N[C@@H](CCC(=O)O)C(=O)O)C(=O)O)cc(NC23CCC(NC(=O)CN4CCN(CC(=O)O)CCN(CC(=O)O)CCN(CC(=O)O)CC4)(CC2)CC3)n1 [E25] | – | – | – | – | – | –
16 | 8.46 | O=C(O)CC[C@H](NC(=O)N[C@@H](CCCCNC(=O)C(Cc1ccc2ccccc2c1)Nc1nnc(C23CCC(CNC(=O)CN4CCN(CC(=O)O)CCN(CC(=O)O)CCN(CC(=O)O)CC4)(CC2)CC3)o1)C(=O)O)C(=O)O (single isomer, unassigned) [E17] | – | – | – | – | – | –
